Consider 8 compounds from ChEMBL document CHEMBL1201862, “PubChem BioAssay data set” (2004).

Assay in all cases: NCI-60 cell line screen, 48 h
In assay [1] the test system is NCI-H226.
For assay [2], the system named is NCI-H460.
Assay [3] concerns Hs-578T.
Assay [4] concerns SNB-19.
Assay [5] deals with CAKI-1.
Assay [6] has as its system MDA-N.
For assay [7], the system named is OVCAR-8.
The subject of assay [8] is A498.
In assay [9] the test system is DU-145.
Assay [10] deals with BT-549.
For assay [11], the system named is HCT-15.
In assay [12] the test system is COLO 205.
Assay [13] has as its system T47D.
The test system of assay [14] is HCC 2998.
For assay [15], the system named is UACC-62.
For assay [16], the system named is U-251.
Assay [17] has as its system NCI/ADR-RES.
The test system of assay [18] is A549.
The subject of assay [19] is SK-OV-3.
The subject of assay [20] is NCI-H522.

Each structure is given as a SMILES string.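 Dose response: 5 concentrations. Exposure: 48 h. Format: 96-well plates. Endpoint: linear interpolation; highest concentration if not reached. GI50 = concentration required for 50% inhibition of growth.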 Activity calls are given as the source filed them. Cut-off read from the data, not from the text of the source: active = GI50 up to about 1.1 µM and inactive = higher.

Turning to `CCCOC(=O)c1cc(C(=CCC[C@H]2CC[C@@]3(C)[C@@H](CC[C@@H]4[C@@H]3CC[C@]3(C)[C@@H](C(C)CCCC(C)C)CC[C@@H]43)C2)c2cc(Cl)c(O)c(C(=O)OCCC)c2)cc(Cl)c1O` (stereo not given in full), the GI50 in assay [1], in [2], in [3], in [4], in assay [5] and in assay [6] was > 50 µM (inactive) in each case. Also, the GI50 in assay [7] was > 50 µM (inactive); in [8], > 50 µM (inactive); in [9], > 50 µM (inactive); in [10], > 50 µM (inactive); in assay [11], greater than 50 µM; in [12], > 50 µM (inactive). Moreover, the GI50 in assay [13], in [14], in assay [15], in assay [16] and in [17] was > 50 µM (inactive) each time.

`CO/C(=N\N=C\c1ccc(OC)c(OC)c1)c1ccncc1`: the GI50 in assay [1], in [2], in [18], in assay [3], in assay [5] and in assay [6] was > 10 µM (inactive) in each case. The GI50 was > 10 µM (inactive) in [7]; > 10 µM (inactive) in assay [8]; > 10 µM (inactive) in assay [9]; > 10 µM (inactive) in assay [10]; greater than 10 µM in [11]; > 10 µM (inactive) in [12]. Moreover, the GI50 in [13], in [19], in [14], in [15], in assay [16] and in [17] was > 10 µM (inactive) in each case.

In the case of `O=S(=O)(O)c1ccc(/N=N/c2ccc3c(S(=O)(=O)O)cccc3c2O)c2ccccc12`, the GI50 in assay [1], in assay [18], in [3], in assay [4], in assay [5] and in [20] was > 100 µM (inactive) in each case. Moreover, the GI50 in assay [6] is > 100 µM (inactive); in [7], > 100 µM (inactive); in [8], > 100 µM (inactive); in assay [9] it was > 100 µM (inactive); in [10] it was > 100 µM (inactive); in [11], greater than 100 µM. The GI50 in [12], in assay [13], in assay [19], in assay [15], in assay [16] and in assay [17] was > 100 µM (inactive) each time.

On to `c1ccc(B2OCC(C3OB(c4ccccc4)OC4COB(c5ccccc5)OC43)O2)cc1` (stereo not given), for which the GI50 in assay [2] was > 100 µM (inactive); in assay [18] it was > 100 µM (inactive); in assay [3], > 100 µM (inactive); in [4], > 100 µM (inactive); in [5], > 100 µM (inactive); in assay [20] it was 24.5 µM (inactive). Also, the GI50 in [6] is > 100 µM (inactive); in assay [7] it was > 100 µM (inactive); in [8], > 100 µM (inactive); in assay [9], > 100 µM (inactive); in [10], > 100 µM (inactive); in [11] it was greater than 100 µM. For the same compound, the GI50 in assay [12], in assay [13], in [19], in assay [15], in [16] and in assay [17] was > 100 µM (inactive) in each case.

In the case of `Cc1ncc([N+](=O)[O-])n1CCN(C)C(=O)CCCn1ccnc1[N+](=O)[O-]`, the GI50 in assay [1], in assay [2], in assay [18], in [3], in assay [5] and in assay [20] was > 100 µM (inactive) each time. The GI50 in assay [6] was > 100 µM (inactive); in assay [7] it was > 100 µM (inactive); in assay [8], > 100 µM (inactive); in assay [9] it was > 100 µM (inactive); in assay [10], > 100 µM (inactive); in assay [11], greater than 100 µM. In addition, the GI50 in [12], in assay [13], in assay [19], in assay [15], in assay [16] and in assay [17] was > 100 µM (inactive) in each case.

Turning to `CCOC(=O)c1ccc2nc3n(c2c1)C(c1c(F)cccc1F)SC3` (stereo not given), the GI50 was 15.1 µM (inactive) in [1]; > 100 µM (inactive) in [2]; 79.1 µM (inactive) in [18]; > 100 µM (inactive) in assay [3]; 95.3 µM (inactive) in assay [4]; > 100 µM (inactive) in [5]. The GI50 in assay [6] is > 100 µM (inactive); in assay [7] it was > 100 µM (inactive); in assay [8] it was > 100 µM (inactive); in assay [9], > 100 µM (inactive); in [10], > 100 µM (inactive); in assay [11], greater than 100 µM. The GI50 in assay [12], in [13], in [19], in [14], in assay [15] and in assay [16] was > 100 µM (inactive) in each case. In addition, the GI50 in assay [17] was > 100 µM (inactive).

Regarding `Cc1c2ccnc(C(=O)NCCN(C)C)c2cc2c3cc(O)ccc3n(C)c12`, the GI50 is 0.177 µM (active) in [1]; < 0.01 µM (active) in assay [2]; 0.0173 µM (active) in assay [18]; 0.204 µM (active) in assay [3]; 0.184 µM (active) in [4]; < 0.01 µM (active) in [5]. The GI50 is 0.236 µM (active) in assay [20]; 0.286 µM (active) in assay [6]; 0.1 µM (active) in assay [7]; 0.0649 µM (active) in [9]; 2.06 µM (inactive) in assay [10]; 0.12 µM in assay [11]. The GI50 in assay [12] is 0.268 µM (active); in assay [13] it was 0.321 µM (active); in assay [19], 0.162 µM (active); in assay [14], 0.573 µM (active); in assay [15], 0.15 µM (active); in assay [16], 0.0373 µM (active). In addition, the GI50 in [17] was 0.766 µM (active).

With `C/C(=N\NC(=O)/C(C#N)=C\c1ccc(N(CCC#N)CCC#N)cc1)c1ccccc1`, the GI50 was > 10 µM (inactive) in [1]; > 10 µM (inactive) in [2]; > 10 µM (inactive) in assay [18]; > 10 µM (inactive) in [3]; 4.1 µM (inactive) in [4]; > 10 µM (inactive) in assay [5]. The GI50 in assay [20] is > 10 µM (inactive); in [6], > 10 µM (inactive); in assay [7] it was > 10 µM (inactive); in [9], > 10 µM (inactive); in assay [10], > 10 µM (inactive); in [11] it was greater than 10 µM. Besides, the GI50 in [12], in assay [13], in [19], in [14], in assay [15] and in assay [17] was > 10 µM (inactive) in each case.
